From the OligoGym collection
“And” between values parts separate entries of the source, which are not always exact repeats. Equal values may be shown once. HELM strings list units from the 5' end as sugar, base in round brackets, then linkage (d deoxyribose, r ribose, m 2'-O-methyl, p phosphodiester). Strings are as the collection lists them, not checked against the first reports. ss, as = sense and antisense strand; [lna] = locked nucleic acid (LNA); [una] = unlocked nucleic acid; [hna] = hexitol nucleic acid; [fl2r] = 2'-fluoro

Details: siRNA
Further: test system not given here.

In order of falling target mRNA knockdown:
1. RNA1{r(G)p.r(U)p.r(A)p.r(U)p.r(G)p.r(A)p.r(C)p.r(C)p.r(G)p.r(A)p.r(C)p.r(U)p.r(A)p.r(C)p.r(G)p.r(C)p.r(G)p.r(U)p.r(A)p.r(T)p.r(T)}|RNA2{r(U)p.r(U)p.r(C)p.r(A)p.r(G)p.r(U)p.r(G)p.[una](U)p.r(G)p.r(A)p.r(U)p.r(G)p.r(A)p.r(C)p.r(A)p.r(C)p.r(U)p.r(U)p.r(G)p.r(T)p.r(T)}$$$RNA1{StrandType:ss}|RNA2{StrandType:as}$  90%
2. RNA1{r(C)p.r(U)p.r(U)p.r(A)p.r(C)p.r(G)p.r(C)p.r(U)p.r(G)p.r(A)p.r(G)p.r(U)p.r(A)p.r(C)p.r(U)p.r(U)p.r(C)p.r(G)p.r(A)p.r(T)p.r(T)}|RNA2{r(T)p.r(C)p.r(G)p.r(A)p.r(A)p.r(G)p.r(U)p.[lna](A)p.r(C)p.r(U)p.r(C)p.r(A)p.r(G)p.r(C)p.r(G)p.r(U)p.r(A)p.r(A)p.r(G)p.[lna](T)p.[lna](T)}$$$RNA1{StrandType:ss}|RNA2{StrandType:as}$  90%
3. RNA1{r(U)p.r(G)p.r(A)p.r(A)p.r(C)p.r(G)p.r(U)p.m(C)p.r(A)p.r(C)p.r(C)p.r(G)p.r(A)p.r(G)p.r(G)p.r(A)p.r(G)p.r(A)p.r(A)p.r(T)p.r(T)}|RNA2{r(U)p.r(U)p.r(C)p.r(U)p.r(C)p.r(C)p.r(U)p.r(C)p.r(G)p.r(G)p.r(U)p.r(G)p.r(A)p.r(C)p.r(G)p.r(U)p.r(U)p.m(C)p.r(A)p.r(T)p.r(T)}$$$RNA1{StrandType:ss}|RNA2{StrandType:as}$  85%
4. RNA1{r(G)p.[hna](A)p.r(C)p.r(G)p.r(U)p.r(A)p.r(A)p.[hna](A)p.r(C)p.r(G)p.r(G)p.r(C)p.r(C)p.[hna](A)p.r(C)p.r(A)p.[hna](A)p.r(G)p.r(U)p.r(U)p.r(C)}|RNA2{r(A)p.r(C)p.r(U)p.r(U)p.r(G)p.r(U)p.r(G)p.r(G)p.r(C)p.r(C)p.r(G)p.r(U)p.r(U)p.r(U)p.r(A)p.r(C)p.r(G)p.r(U)p.r(C)p.r(G)p.r(C)}$$$RNA1{StrandType:ss}|RNA2{StrandType:as}$  84.9%
5. RNA1{r(C)p.r(U)p.r(U)p.r(A)p.r(C)p.r(G)p.r(C)p.r(U)p.r(G)p.r(A)p.r(G)p.r(U)p.r(A)p.r(C)p.r(U)p.r(U)p.r(C)p.r(G)p.r(A)p.r(T)p.r(T)}|RNA2{r(U)p.r(C)p.r(G)p.r(A)p.[lna](A)p.r(G)p.r(U)p.r(A)p.r(C)p.r(U)p.r(C)p.r(A)p.r(G)p.r(C)p.r(G)p.r(U)p.r(A)p.r(A)p.r(G)p.r(T)p.r(T)}$$$RNA1{StrandType:ss}|RNA2{StrandType:as}$  83%
6. RNA1{r(U)p.r(C)p.r(C)p.r(U)p.r(C)p.r(G)p.r(U)p.m(C)p.r(G)p.r(U)p.r(C)p.m(U)p.r(G)p.r(U)p.r(U)p.r(C)p.m(U)p.r(A)p.r(A)p.r(T)p.r(T)}|RNA2{r(U)p.m(U)p.r(A)p.r(G)p.r(A)p.r(A)p.m(C)p.r(A)p.r(G)p.r(A)p.r(C)p.r(G)p.r(A)p.r(C)p.r(G)p.r(A)p.r(G)p.r(G)p.r(A)p.r(T)p.r(T)}$$$RNA1{StrandType:ss}|RNA2{StrandType:as}$  82%
7. RNA1{r(A)p.r(U)p.r(C)p.r(G)p.r(A)p.r(C)p.r(C)p.r(U)p.r(G)p.r(A)p.r(A)p.r(G)p.r(G)p.r(A)p.r(G)p.[fl2r](U)p.r(A)p.r(C)p.r(G)p.r(T)p.r(T)}|RNA2{r(C)p.r(G)p.r(U)p.[fl2r](A)p.r(C)p.r(U)p.r(C)p.r(C)p.r(U)p.r(U)p.r(C)p.r(A)p.r(G)p.r(G)p.r(U)p.r(C)p.r(G)p.r(A)p.r(U)p.r(T)p.r(T)}$$$RNA1{StrandType:ss}|RNA2{StrandType:as}$  82%
8. RNA1{m(U)p.r(A)p.r(G)p.r(C)p.r(C)p.r(A)p.r(G)p.r(A)p.r(G)p.r(C)p.r(C)p.r(A)p.r(A)p.r(A)p.r(G)p.r(A)p.r(A)p.r(G)p.r(C)p.r(T)p.r(T)}|RNA2{r(G)p.r(C)p.r(U)p.r(U)p.r(C)p.r(U)p.r(U)p.r(U)p.r(G)p.r(G)p.r(C)p.r(U)p.r(C)p.r(U)p.r(G)p.r(G)p.r(C)p.m(U)p.r(A)p.r(T)p.r(T)}$$$RNA1{StrandType:ss}|RNA2{StrandType:as}$  82%
9. RNA1{r(A)p.m(U)p.r(G)p.r(G)p.r(G)p.r(A)p.r(G)p.r(A)p.r(A)p.r(G)p.m(U)p.r(A)p.r(G)p.r(U)p.r(C)p.r(C)p.r(C)p.r(C)p.r(C)p.r(T)p.r(T)}|RNA2{r(G)p.r(G)p.r(G)p.r(G)p.r(G)p.r(A)p.r(C)p.m(U)p.r(A)p.r(C)p.r(U)p.r(U)p.r(C)p.r(U)p.r(C)p.r(C)p.m(C)p.r(A)p.r(U)p.r(T)p.r(T)}$$$RNA1{StrandType:ss}|RNA2{StrandType:as}$  82%
10. RNA1{[lna](T)p.r(G)p.r(A)p.r(G)p.r(A)p.r(G)p.r(A)p.r(A)p.r(A)p.r(G)p.r(C)p.r(A)p.r(C)p.r(A)p.r(G)p.r(A)p.r(A)p.r(A)p.r(A)p.[lna](T)p.[lna](T)}|RNA2{r(U)p.r(U)p.r(U)p.r(U)p.r(C)p.r(U)p.r(G)p.r(U)p.r(G)p.r(C)p.r(U)p.r(U)p.r(U)p.r(C)p.r(U)p.r(C)p.r(U)p.r(C)p.r(A)p.d(T)p.d(T)}$$$RNA1{StrandType:ss}|RNA2{StrandType:as}$  70%
11. RNA1{m(A)p.r(G)p.m(A)p.r(G)p.m(A)p.r(G)p.m(G)p.r(U)p.m(G)p.r(G)p.m(A)p.r(G)p.m(G)p.r(U)p.m(A)p.r(U)p.m(C)p.r(U)p.m(C)p.r(T)p.r(T)}|RNA2{r(G)p.r(A)p.r(G)p.r(A)p.r(U)p.r(A)p.r(C)p.r(C)p.r(U)p.r(C)p.r(C)p.m(A)p.r(C)p.r(C)p.r(U)p.m(C)p.r(U)p.m(C)p.r(U)p.r(T)p.r(T)}$$$RNA1{StrandType:ss}|RNA2{StrandType:as}$  67%
12. RNA1{r(G)p.[hna](A)p.r(C)p.r(G)p.r(U)p.r(A)p.r(A)p.[hna](A)p.r(C)p.r(G)p.r(G)p.r(C)p.r(C)p.[hna](A)p.r(C)p.r(A)p.[hna](A)p.r(G)p.r(U)p.r(U)p.r(C)}|RNA2{r(A)p.m(C)p.r(U)p.r(U)p.r(G)p.r(U)p.r(G)p.r(G)p.r(C)p.r(C)p.r(G)p.r(U)p.r(U)p.r(U)p.r(A)p.r(C)p.r(G)p.r(U)p.r(C)p.r(G)p.r(C)}$$$RNA1{StrandType:ss}|RNA2{StrandType:as}$  54.2%
13. RNA1{[fl2r](C)p.r(C)p.[fl2r](C)p.r(U)p.[fl2r](C)p.r(C)p.[fl2r](C)p.r(C)p.[fl2r](U)p.r(G)p.[fl2r](U)p.r(C)p.[fl2r](C)p.r(C)p.[fl2r](C)p.r(G)p.[fl2r](C)p.r(U)p.[fl2r](U)p.r(T)p.r(T)}|RNA2{[fl2r](A)p.[fl2r](A)p.r(G)p.r(C)p.r(G)p.r(G)p.r(G)p.r(G)p.[fl2r](A)p.r(C)p.[fl2r](A)p.r(G)p.r(G)p.r(G)p.r(G)p.[fl2r](A)p.r(G)p.r(G)p.r(G)p.r(T)p.r(T)}$$$RNA1{StrandType:ss}|RNA2{StrandType:as}$  41%
14. RNA1{r(A)p.r(A)p.r(A)p.r(C)p.r(C)p.r(C)p.r(C)p.r(U)p.r(A)p.r(G)p.r(A)p.r(G)p.r(G)p.r(G)p.r(C)p.r(A)p.r(A)p.r(G)p.r(U)p.r(T)p.r(T)}|RNA2{[fl2r](A)p.r(C)p.[fl2r](U)p.r(U)p.[fl2r](G)p.r(C)p.[fl2r](C)p.r(C)p.[fl2r](U)p.r(C)p.[fl2r](U)p.r(A)p.[fl2r](G)p.r(G)p.[fl2r](G)p.r(G)p.[fl2r](U)p.r(U)p.[fl2r](U)p.r(T)p.r(T)}$$$RNA1{StrandType:ss}|RNA2{StrandType:as}$  37%
15. RNA1{m(C)p.r(C)p.m(G)p.r(A)p.m(G)p.r(A)p.m(G)p.r(C)p.m(U)p.r(C)p.m(U)p.r(C)p.m(C)p.r(U)p.m(A)p.r(C)p.m(C)p.r(U)p.m(U)p.r(T)p.r(T)}|RNA2{r(A)p.r(A)p.r(G)p.r(G)p.r(U)p.r(A)p.r(G)p.r(G)p.r(A)p.r(G)p.r(A)p.r(G)p.r(C)p.r(U)p.r(C)p.r(U)p.r(C)p.r(G)p.r(G)p.r(T)p.r(T)}$$$RNA1{StrandType:ss}|RNA2{StrandType:as}$  34%
16. RNA1{r(G)p.r(A)p.r(C)p.r(G)p.[hna](U)p.r(A)p.r(A)p.[hna](A)p.r(C)p.r(G)p.[hna](G)p.r(C)p.r(C)p.[hna](A)p.r(C)p.r(A)p.r(A)p.r(G)p.[hna](U)p.[hna](U)p.d(T)}|RNA2{r(A)p.[hna](C)p.r(U)p.r(U)p.r(G)p.r(U)p.r(G)p.r(G)p.r(C)p.r(C)p.r(G)p.r(U)p.r(U)p.r(U)p.r(A)p.r(C)p.r(G)p.[hna](U)p.[hna](C)p.[hna](G)p.d(T)}$$$RNA1{StrandType:ss}|RNA2{StrandType:as}$  23.2%
17. RNA1{r(G)p.r(A)p.r(C)p.r(G)p.r(U)p.r(A)p.r(A)p.r(A)p.r(C)p.r(G)p.r(G)p.r(C)p.r(C)p.r(A)p.r(C)p.r(A)p.r(A)p.r(G)p.[hna](U)p.[hna](U)p.r(C)}|RNA2{r(A)p.r(C)p.[lna](T)p.r(U)p.r(G)p.[lna](T)p.r(G)p.r(G)p.r(C)p.r(C)p.r(G)p.r(U)p.r(U)p.[lna](T)p.r(A)p.r(C)p.r(G)p.[lna](T)p.r(C)p.[lna](G)p.[lna](C)}$$$RNA1{StrandType:ss}|RNA2{StrandType:as}$  13.3%
18. RNA1{r(G)p.r(A)p.r(A)p.r(G)p.r(A)p.r(U)p.r(A)p.r(G)p.r(G)p.r(A)p.r(A)p.r(G)p.r(G)p.r(G)p.r(G)p.r(C)p.r(U)p.r(U)p.r(C)p.r(T)p.r(T)}|RNA2{r(G)p.r(A)p.r(A)p.r(G)p.[fl2r](C)p.[fl2r](C)p.[fl2r](C)p.[fl2r](C)p.[fl2r](U)p.[fl2r](U)p.[fl2r](C)p.[fl2r](C)p.[fl2r](U)p.r(A)p.[fl2r](U)p.[fl2r](C)p.[fl2r](U)p.[fl2r](U)p.[fl2r](C)p.r(T)p.r(T)}$$$RNA1{StrandType:ss}|RNA2{StrandType:as}$  5%
19. RNA1{r(G)p.r(A)p.r(C)p.r(G)p.[hna](U)p.r(A)p.r(A)p.[hna](A)p.r(C)p.r(G)p.[hna](G)p.r(C)p.r(C)p.[hna](A)p.r(C)p.r(A)p.r(A)p.r(G)p.[hna](U)p.r(U)p.d(T)}|RNA2{r(A)p.[hna](C)p.r(U)p.r(U)p.r(G)p.r(U)p.r(G)p.r(G)p.[hna](C)p.r(C)p.r(G)p.r(U)p.r(U)p.r(U)p.r(A)p.r(C)p.r(G)p.[hna](U)p.[hna](C)p.[hna](G)p.d(T)}$$$RNA1{StrandType:ss}|RNA2{StrandType:as}$  0%

In the case of “RNA1{r(U)p.r(C)p.r(G)p.r(G)p.r(G)p.r(A)p.r(A)p.r(A)p.r(U)p.r(U)p.r(U)p.r(C)p.r(U)p.r(C)p.r(U)p.r(A)p.r(U)p.r(U)p.r(A)p.d(T)p.d(T)}|RNA2{r(U)p.r(A)p.r(A)p.r(U)p.r(A)p.r(G)p.r(A)p.r(G)p.r(A)p.r(A)p.r(A)p.r(U)p.r(U)p.r(U)p.r(C)p.r(C)p.r(C)p.r(G)p.r(A)p.d(T)p.d(T)}$$$RNA1{StrandType:ss}|RNA2{StrandType:as}$”, the target mRNA knockdown is reported as 94% and 80%.
